Laboratory results reported in patent US9242993B2, “Morpholino substituted bicyclic pyrimidine urea or carbamate derivatives as mTOR inhibitors” (CELLZOME LIMITED, priority 2011, dated 2016).

Columns and labels:
[1] = tested on: S6RP serine-240/244 phosphorylation; experiment: In vitro phospho-S6 cellular assay; type: cell-based; conditions: Homo sapiens; HEK293T/17 cells, 2 hours; read-out: pS6 inhibition value (IC50), activity level
Outline: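 HEK293T/17 cells (40,000/well for pS6RP, 80,000/well for pAkt) in DMEM, 2% FCS treated 2 h at 37 °C with 8 compound concentrations (0.1% DMSO). Lysates assayed by MesoScale sandwich electrochemiluminescence for pS6RP Ser240/244 or pAkt Ser473. Curves fitted by sigmoidal variable-slope regression.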

[2] = tested on: Akt serine-473 phosphorylation; experiment: In vitro phospho-Akt cellular assay; type: cell-based; conditions: Homo sapiens; HEK293T/17 cells, 2 hours; read-out: pAkt inhibition value (IC50), activity level
Text: Activation of mTOR signaling results in phosphorylation of several downstream targets. In cells, mTOR exists in two different protein complexes. The mTOR Complex-1 (mTORC1) phosphorylates and activates S6 Kinase 1 (S6K1) and S6 Kinase 2 (S6K2) (also known as p70S6K) which then phosphorylate S6 Ribosomal Protein (S6RP) (also known as RPS6)3. S6RP is phosphorylated on serine 235, serine 236, serine 240 and serine 244 by both pS6K1 and pS6K2. The mTOR Complex-2 (mTORC2) phosphorylates AKT on serine 473 which activates the AKT signaling pathway.
The assay measures a test compound's inhibition of S6RP serine-240/244 phosphorylation and inhibition of Akt serine-473 phosphorylation in human embryonic kidney derived HEK293T/17 cells (ATCC CRL-11268).
The HEK293T/17 cell line is maintained in DMEM media (Invitrogen catalogue number 41965-039) supplemented with 10% FCS at 37° C. in a 5% CO2 humidified incubator.
Cells are seeded in 96-well plates at 40,000 cells/well (pS6RP S240/244 assay) or 80,000 cells/well (pAkt S473 assay) in 90 μl growth media (DMEM, 2% FCS). Plates are incubated for 1 hour in a humidified incubator to allow the cells to adhere. Cells are treated with 8 concentrations of test compounds or DMSO alone for controls (final DMSO concentration 0.1%) and incubated at 37° C. for 2 hours. Then 20 μl of 5× concentrated lysis buffer (750 mM NaCl, 100 mM Tris pH7.4, 5 mM ADTA, 5 mM EGTA, 5% Triton X-100) is added, plates are sealed and incubated for 15 minutes at 4° C. with gentle shaking. After cell lysis, 25 μl cell lysate is transferred to a MesoScale plate coated with an antibody to pS6RP Ser240/244 (MesoScale Discovery K150DGD-3) or an antibody to pAkt Ser 473 (MesoScale Discovery K151DGD-3). Plates have been blocked before by incubation with 150 μl MesoScale Discovery Blocking Solution-A for 1 hour at room temperature followed by washing with 150 μl 1× Tris wash buffer per well. After the transfer of the cell lysate to the MSD plate, the pS6RP (or pAkt) protein is captured on the coated antibody by incubation at room temperature for 1 hour with gentle shaking. After the capture step the plate is washed three times with 150 μl of 1× Tris wash buffer per well. Then 25 μl detection antibody conjugated with a Sulfo-Tag is added and incubated for 1 hour at room temperature with gentle shaking. Subsequently the antibody solution is removed and the plate is washed 3 times with 150 μl 1× Tris wash buffer per well and 150 μl Read buffer is added. The plates are analysed on a MSD 2400 Plate Reader (MesoScale Discovery). Data analysis is performed using nonlinear regression for a sigmoidal dose-response with a variable slope.

mTOR = mTOR (Homo sapiens, UniProt P42345); experiment: biochemical
[3] = target: DNA-dependent protein kinase (DNA-PK) (Homo sapiens, UniProt P78527); experiment: biochemical
Sequence of DNA-dependent protein kinase (DNA-PK) (P78527 whole entry): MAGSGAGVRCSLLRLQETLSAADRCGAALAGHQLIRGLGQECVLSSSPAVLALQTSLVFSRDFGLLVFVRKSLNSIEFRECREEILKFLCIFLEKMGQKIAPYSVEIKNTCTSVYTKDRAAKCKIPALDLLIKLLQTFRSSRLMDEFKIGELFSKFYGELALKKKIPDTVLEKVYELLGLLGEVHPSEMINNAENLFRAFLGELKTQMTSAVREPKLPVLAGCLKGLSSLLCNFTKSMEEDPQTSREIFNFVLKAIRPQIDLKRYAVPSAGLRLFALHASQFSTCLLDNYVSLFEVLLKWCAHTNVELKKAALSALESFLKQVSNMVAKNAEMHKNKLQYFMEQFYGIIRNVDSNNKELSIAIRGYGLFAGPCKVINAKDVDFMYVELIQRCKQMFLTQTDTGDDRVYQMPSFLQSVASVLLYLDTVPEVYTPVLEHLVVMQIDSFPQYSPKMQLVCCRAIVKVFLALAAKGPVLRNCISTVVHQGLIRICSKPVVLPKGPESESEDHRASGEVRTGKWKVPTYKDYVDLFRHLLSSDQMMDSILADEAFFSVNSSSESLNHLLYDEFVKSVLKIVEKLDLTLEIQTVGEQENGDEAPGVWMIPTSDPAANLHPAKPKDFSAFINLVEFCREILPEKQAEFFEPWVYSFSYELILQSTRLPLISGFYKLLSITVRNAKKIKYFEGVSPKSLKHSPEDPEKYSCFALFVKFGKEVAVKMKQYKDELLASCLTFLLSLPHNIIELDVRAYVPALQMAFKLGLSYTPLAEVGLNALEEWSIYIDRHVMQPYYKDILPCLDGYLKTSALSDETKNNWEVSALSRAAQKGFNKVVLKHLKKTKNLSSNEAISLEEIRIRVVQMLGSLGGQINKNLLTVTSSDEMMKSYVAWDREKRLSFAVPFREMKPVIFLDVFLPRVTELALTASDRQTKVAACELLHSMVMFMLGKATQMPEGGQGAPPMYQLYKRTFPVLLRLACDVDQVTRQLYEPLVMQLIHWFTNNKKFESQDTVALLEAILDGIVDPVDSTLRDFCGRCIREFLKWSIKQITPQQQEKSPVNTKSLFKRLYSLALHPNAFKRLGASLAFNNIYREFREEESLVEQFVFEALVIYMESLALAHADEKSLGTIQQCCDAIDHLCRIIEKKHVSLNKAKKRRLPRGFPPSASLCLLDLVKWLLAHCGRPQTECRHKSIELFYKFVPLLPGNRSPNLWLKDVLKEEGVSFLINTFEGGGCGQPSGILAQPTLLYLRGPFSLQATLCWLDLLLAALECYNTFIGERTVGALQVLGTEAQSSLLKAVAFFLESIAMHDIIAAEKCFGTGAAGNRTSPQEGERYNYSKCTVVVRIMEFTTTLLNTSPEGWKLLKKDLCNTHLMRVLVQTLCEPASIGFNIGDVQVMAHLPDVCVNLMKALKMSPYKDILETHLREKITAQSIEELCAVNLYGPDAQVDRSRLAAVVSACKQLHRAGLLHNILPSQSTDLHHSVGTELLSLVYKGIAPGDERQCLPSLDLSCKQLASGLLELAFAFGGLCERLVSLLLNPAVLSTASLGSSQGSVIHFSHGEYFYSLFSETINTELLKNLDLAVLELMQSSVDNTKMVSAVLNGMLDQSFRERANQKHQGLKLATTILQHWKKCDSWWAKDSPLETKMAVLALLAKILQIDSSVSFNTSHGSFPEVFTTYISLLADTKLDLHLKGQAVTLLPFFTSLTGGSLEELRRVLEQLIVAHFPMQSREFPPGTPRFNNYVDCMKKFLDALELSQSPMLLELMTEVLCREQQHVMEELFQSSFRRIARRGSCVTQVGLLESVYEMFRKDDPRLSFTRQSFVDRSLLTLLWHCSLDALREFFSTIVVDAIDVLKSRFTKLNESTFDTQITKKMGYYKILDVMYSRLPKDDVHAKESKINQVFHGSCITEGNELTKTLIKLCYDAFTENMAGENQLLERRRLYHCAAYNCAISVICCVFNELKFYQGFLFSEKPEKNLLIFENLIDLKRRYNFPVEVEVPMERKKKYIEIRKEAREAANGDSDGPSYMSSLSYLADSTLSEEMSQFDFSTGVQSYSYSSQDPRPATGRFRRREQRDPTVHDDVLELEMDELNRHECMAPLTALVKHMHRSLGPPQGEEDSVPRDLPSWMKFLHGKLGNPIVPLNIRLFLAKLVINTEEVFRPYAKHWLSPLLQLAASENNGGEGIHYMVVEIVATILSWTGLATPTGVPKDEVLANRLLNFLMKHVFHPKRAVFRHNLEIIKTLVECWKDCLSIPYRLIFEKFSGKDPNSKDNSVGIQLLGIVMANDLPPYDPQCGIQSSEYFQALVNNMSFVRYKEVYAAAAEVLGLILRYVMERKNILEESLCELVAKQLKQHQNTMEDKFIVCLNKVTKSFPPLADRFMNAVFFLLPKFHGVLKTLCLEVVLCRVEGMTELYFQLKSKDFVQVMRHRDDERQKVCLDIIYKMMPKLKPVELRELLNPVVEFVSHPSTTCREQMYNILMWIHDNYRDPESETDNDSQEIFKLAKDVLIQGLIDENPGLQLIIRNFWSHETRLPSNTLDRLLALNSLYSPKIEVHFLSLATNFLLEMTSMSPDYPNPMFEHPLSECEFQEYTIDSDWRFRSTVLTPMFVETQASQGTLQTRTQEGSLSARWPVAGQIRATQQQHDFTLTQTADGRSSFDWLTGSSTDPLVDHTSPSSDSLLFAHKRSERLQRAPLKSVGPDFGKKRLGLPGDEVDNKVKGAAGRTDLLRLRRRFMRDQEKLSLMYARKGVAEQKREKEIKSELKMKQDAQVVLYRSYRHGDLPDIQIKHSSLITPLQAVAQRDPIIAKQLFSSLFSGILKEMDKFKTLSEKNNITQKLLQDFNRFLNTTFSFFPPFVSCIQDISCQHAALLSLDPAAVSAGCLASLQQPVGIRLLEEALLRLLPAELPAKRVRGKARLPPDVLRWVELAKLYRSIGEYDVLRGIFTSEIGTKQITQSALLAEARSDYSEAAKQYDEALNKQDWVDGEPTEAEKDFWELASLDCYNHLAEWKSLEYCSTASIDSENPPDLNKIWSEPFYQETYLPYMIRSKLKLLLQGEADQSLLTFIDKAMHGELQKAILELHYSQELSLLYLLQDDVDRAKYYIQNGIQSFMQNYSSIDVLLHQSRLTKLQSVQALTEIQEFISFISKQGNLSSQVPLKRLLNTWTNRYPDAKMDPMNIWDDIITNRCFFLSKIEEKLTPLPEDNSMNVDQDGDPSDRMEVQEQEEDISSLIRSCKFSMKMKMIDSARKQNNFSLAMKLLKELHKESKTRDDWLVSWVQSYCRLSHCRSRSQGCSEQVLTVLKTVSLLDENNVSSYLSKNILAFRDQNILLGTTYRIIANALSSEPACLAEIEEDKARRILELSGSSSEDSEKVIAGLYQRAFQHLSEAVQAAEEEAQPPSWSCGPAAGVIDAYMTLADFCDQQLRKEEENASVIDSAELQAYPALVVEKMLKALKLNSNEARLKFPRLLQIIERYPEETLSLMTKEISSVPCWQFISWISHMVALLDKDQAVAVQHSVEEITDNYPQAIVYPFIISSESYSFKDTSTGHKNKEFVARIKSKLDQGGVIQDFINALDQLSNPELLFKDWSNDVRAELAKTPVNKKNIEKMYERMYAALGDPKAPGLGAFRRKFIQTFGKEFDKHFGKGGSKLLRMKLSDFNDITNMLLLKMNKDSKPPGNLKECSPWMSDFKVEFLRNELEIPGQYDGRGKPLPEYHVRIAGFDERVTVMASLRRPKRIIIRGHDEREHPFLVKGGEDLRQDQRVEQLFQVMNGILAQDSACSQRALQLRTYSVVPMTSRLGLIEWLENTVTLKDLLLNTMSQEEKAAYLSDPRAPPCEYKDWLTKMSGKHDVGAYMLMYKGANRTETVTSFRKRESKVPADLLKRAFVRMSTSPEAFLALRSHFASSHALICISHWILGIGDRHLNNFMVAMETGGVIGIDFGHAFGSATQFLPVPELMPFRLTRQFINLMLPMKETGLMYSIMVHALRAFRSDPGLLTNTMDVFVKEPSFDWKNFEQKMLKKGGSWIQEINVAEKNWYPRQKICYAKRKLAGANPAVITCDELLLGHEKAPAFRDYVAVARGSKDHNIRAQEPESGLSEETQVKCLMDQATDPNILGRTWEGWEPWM

[4] = tested on: IFNγ release in whole blood; experiment: In vitro human whole blood assay (IFNγ release); type: cell-based; conditions: αCD3/αCD28 and IL-2 stimulation, 18 hours, read-out: WB inhibition value (pIC50) (converted)
Outline: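 Na-heparin human whole blood, diluted 1.4-fold in RPMI, was preincubated 1 h at 37° C with 10 compound concentrations (0.2% DMSO), then stimulated with 1 μg/ml αCD3, 1 μg/ml αCD28 and 10 ng/ml IL-2 for 18 h. Plasma IFNγ quantified by MesoScale electrochemiluminescence immunoassay; values from variable-slope sigmoidal dose-response fit.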

[5] = Bi-directional Caco-2 permeability assay; type: in vitro ADME; conditions: human, pH 7.4, Caco-2, 10 uM, pH7.4, read-out: Efflux ratio (ER), Papp B>A/Papp A>B
Method: Bi-directional Caco-2 assays to assess the permeability of compounds in the gi tract, were performed as described below.
2×10^5 cells/well were seeded in plating medium consisting of DMEM+GlutaMAXI+1% NEAA+10% FBS (FetalClone II)+1% Pen/Strep. The medium was changed every 2-3 days.
50 uM Lucifer Yellow (Sigma) was added to the donor buffer in all wells to assess integrity of the cell layers by monitoring Lucifer Yellow permeation. As Lucifer Yellow (LY) cannot freely permeate lipophilic barriers, a high degree of LY transport indicates poor integrity of the cell layer. After a 1 hr incubation at 37° C. while shaking at an orbital shaker at 150 rpm, 70 ul aliquots were taken from both apical (A) and basal (B) chambers and added to 100 ul 50:50 acetonitrile:water solution containing analytical internal standard (0.5 uM carbamazepine) in a 96 well plate.
Concentrations of compound in the samples were measured by high performance liquid-chromatography/mass spectroscopy (LC-MS/MS).
The Efflux ratio, as an indication of active efflux from the apical cell surface of Caco-2 cells, was calculated using the ratio of Papp B>A/Papp A>B.

Work on C[C@H]1COCCN1c1nc(-c2ccc(NC(=O)NC3CC3)cc2)nc2c1CSC2 [Example 1, (S)-1-cyclopropyl-3-(4-(4-(3-methylmorpholino)-5,7-dihydrothieno[3,4-d]pyrimidin-2-yl)phenyl)urea] yielded an IC50 [1] of less than 100 nM, an IC50 [2] of less than 100 nM and an IC50 (mTOR) of less than 100 nM. For the same molecule, the IC50 [3] was greater than 10000 nM.

CCNC(=O)Nc1ccc(-c2nc(N3CCOC[C@@H]3C)c3c(n2)C(C)(C)S(=O)(=O)C3)cc1 [Example 62, (S)-1-(4-(7,7-dimethyl-4-(3-methylmorpholino)-6,6-dioxido-5,7-dihydrothieno[3,4-d]pyrimidin-2-yl)phenyl)-3-ethylurea] showed an IC50 [1] of less than 100 nM, an IC50 [4] of 200 nM and an efflux ratio at 1 h, 10 uM [5] of 22. The IC50 [3] was greater than 10000 nM.

C[C@H]1COCCN1c1nc(-c2ccc(NC(=O)NC3CC3)cc2)nc2c1[C@H](C)S(=O)(=O)C2 (single isomer, unassigned) [Example 10] showed an IC50 [1] of less than 100 nM, an IC50 [2] of less than 100 nM and an IC50 (mTOR) of less than 100 nM.

In the case of CCC1COCCN1c1nc(-c2ccc(NC(=O)NC3CC3)cc2)nc2c1CS(=O)(=O)C2 (stereo not shown) [Example 27, 1-cyclopropyl-3-(4-(4-(3-ethylmorpholino)-6,6-dioxido-5,7-dihydrothieno[3,4-d]pyrimidin-2-yl)phenyl)urea], the IC50 [1] is reported as less than 100 nM, the efflux ratio at 1 h, 10 uM [5] is reported as 25 and the IC50 (mTOR) is reported as less than 100 nM. The IC50 [3] was greater than 10000 nM.

Molecule C[C@H]1COCCN1c1nc(-c2ccc(NC(=O)NC3CC3)cc2)nc2c1S(=O)(=O)CC2 [Example 5, (S)-1-cyclopropyl-3-(4-(4-(3-methylmorpholino)-5,5-dioxido-6,7-dihydrothieno[3,2-d]pyrimidin-2-yl)phenyl)urea] has an IC50 [1] of less than 100 nM, an IC50 [2] of less than 100 nM and an IC50 (mTOR) of less than 100 nM. It also gave an IC50 [3] greater than 10000 nM.

C[C@@H]1c2c(nc(-c3ccc(NC(=O)NC4CC4)cc3)nc2N2CCOC[C@@H]2C)CS1(=O)=O (single isomer, unassigned) [Example 9] showed an IC50 [1] of less than 100 nM, an IC50 [2] of less than 100 nM and an IC50 (mTOR) of less than 100 nM.

With C[C@H]1COCCN1c1nc(-c2ccc(NC(=O)NC3CC3)cc2)nc2c1CS(=O)(=O)C2 [Example 2, (S)-1-cyclopropyl-3-(4-(4-(3-methylmorpholino)-6,6-dioxido-5,7-dihydrothieno[3,4-d]pyrimidin-2-yl)phenyl)urea] the IC50 [1] was less than 100 nM, the IC50 [2] was less than 100 nM and the IC50 (mTOR) was less than 100 nM.
